From ChEMBL document CHEMBL1201862, “PubChem BioAssay data set” (2004) come the findings set out here.

Some test systems named below: M14; Malme-3M; HOP-92; MDA-MB-435; MOLT-4; LOX IMVI; NCI-H460; MCF7; HCT-116; PC-3; NCI-H23; DMS-273; OVCAR-3; SW-620; HOP-62; SK-OV-3; SK-MEL-28; A498; U-251; TK-10.
What all share (assay): inhibition of tumour cell growth, NCI panel, 48 h

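The compound was tested at five concentrations on cells cultured in 96-well plates, with a 48-hour exposure period. GI50 = concentration required for 50% inhibition of growth.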 Active and inactive are the calls of the source. Rule as the data show it: active = GI50 up to about 1.1 µM and inactive = higher. Bounds are passed on as bounds.

On to `CC1CC[P+](c2ccccc2)(c2ccccc2)c2c1ccc1ccccc21` (configuration not stated), for which the GI50 was 3.53 µM (inactive) in the assay with M14; 5.96 µM (inactive) with Malme-3M; 1.45 µM (inactive) in the assay with HOP-92; 1.52 µM (inactive) with MDA-MB-435; 5.66 µM (inactive) with MOLT-4; 2.33 µM (inactive) in the assay with LOX IMVI. Besides, the GI50 in the assay on NCI-H460 is 2 µM (inactive); in the assay with MCF7, 2.26 µM (inactive); in the assay with HCT-116, 1.96 µM (inactive); in the assay with PC-3 it was 0.948 µM (active); with NCI-H23, 1.57 µM (inactive); in the assay on DMS-273 it was 0.405 µM (active).

`O=C1CCC23CC(C=CC=C12)n1c(=O)n(-c2ccccc2)c(=O)n13` (configuration not stated): the GI50 was > 100 µM (inactive) in the assay on OVCAR-3; > 100 µM (inactive) in the assay with Malme-3M; > 100 µM (inactive) in the assay on HOP-92; 49.7 µM (inactive) in the assay on MOLT-4; > 72.1 µM (inactive) in the assay on LOX IMVI; 43.2 µM (inactive) in the assay with SW-620. The GI50 with HOP-62 was > 100 µM (inactive); in the assay with NCI-H460, > 100 µM (inactive); in the assay with MCF7, 10.9 µM (inactive); in the assay on SK-OV-3 it was > 100 µM (inactive); with HCT-116, > 71.9 µM (inactive); with NCI-H23, 99.1 µM (inactive). Moreover, the GI50 in the assay on SK-MEL-28 is > 69.2 µM (inactive); in the assay with DMS-273 it was 71.4 µM (inactive); with A498 it was > 100 µM (inactive).

Turning to `Cc1ccc(NC(=O)OCC(COc2ccc(Cl)cc2)OC(=O)Nc2ccc(C)cc2)cc1` (configuration not stated), the GI50 is 14.6 µM (inactive) with OVCAR-3; 28.4 µM (inactive) with U-251; 17.1 µM (inactive) in the assay on M14; 19 µM (inactive) in the assay on Malme-3M; 11.1 µM (inactive) in the assay with HOP-92; 16.2 µM (inactive) with MOLT-4. Moreover, the GI50 is 21.2 µM (inactive) with LOX IMVI; 17.1 µM (inactive) in the assay on SW-620; 26.6 µM (inactive) with HOP-62; 25.9 µM (inactive) in the assay on NCI-H460; 12.4 µM (inactive) in the assay with TK-10; 58.6 µM (inactive) in the assay on SK-OV-3. Besides, the GI50 is 20.7 µM (inactive) with HCT-116; 25.9 µM (inactive) in the assay with NCI-H23; 35.1 µM (inactive) with SK-MEL-28; 15.8 µM (inactive) with DMS-273; 13.2 µM (inactive) with A498.

Regarding `O=C(CC1(O)C(=O)Nc2c(Cl)cc(Cl)cc21)c1ccc([N+](=O)[O-])cc1` (configuration not stated), the GI50 is 33.7 µM (inactive) with OVCAR-3; 31.7 µM (inactive) with U-251; > 41.6 µM (inactive) in the assay on M14; > 43.9 µM (inactive) in the assay with Malme-3M; 24.3 µM (inactive) with HOP-92; > 59.4 µM (inactive) in the assay with MOLT-4. Besides, the GI50 in the assay with LOX IMVI was > 100 µM (inactive); with SW-620, 28.3 µM (inactive); with HOP-62, > 100 µM (inactive); in the assay with NCI-H460, 86.5 µM (inactive); with TK-10 it was > 100 µM (inactive); with SK-OV-3 it was > 100 µM (inactive). Besides, the GI50 in the assay with HCT-116 was > 42.2 µM (inactive); in the assay with NCI-H23, 29.9 µM (inactive); with SK-MEL-28, > 44 µM (inactive); in the assay on DMS-273 it was > 62.4 µM (inactive); with A498, 29.9 µM (inactive).

Take `N#C[C@H](OC1OC(COC2OC(CO)C(O)C(O)C2O)C(O)C(O)C1O)c1ccccc1` (some centres not stated): the GI50 in the assay with OVCAR-3 is > 250 µM (inactive); in the assay on U-251 it was > 250 µM (inactive); in the assay with Malme-3M it was > 250 µM (inactive); with HOP-92, 2.5 µM (inactive); in the assay on MOLT-4 it was 158 µM (inactive); with LOX IMVI it was > 195 µM (inactive). The GI50 in the assay on SW-620, in the assay on HOP-62, in the assay on NCI-H460, in the assay with MCF7, in the assay on SK-OV-3 and in the assay with HCT-116 was > 250 µM (inactive) throughout. In addition, the GI50 is > 250 µM (inactive) with NCI-H23, > 250 µM (inactive) with SK-MEL-28, > 250 µM (inactive) with DMS-273 and > 11.6 µM (inactive) in the assay on A498.
